Structures can show the parent of a compound that is named as a salt.
How the values were obtained:
Format in all cases: cell-based, human
[1] = test system: OE33R radio-resistant oesophageal adenocarcinoma cells; experiment: Quantification of oxidative phosphorylation (OCR, Seahorse), OE33R; conditions: 10 μM, 24 hours
Description: (§1) OE33P radiosensitive and OE33R radio-resistant oesophageal adenocarcinoma cells were used to test the effects of the compounds 11B HCl, 11B CC11 HCl, 11B CC16 HCl, 11B 471 and 11B 268 on oxidative phosphorylation. Cells were maintained in RPMI media supplemented with 10% foetal calf serum, penicillin (100 U/ml) and streptomycin (100 μg/ml). A total of 11,000-13,000 cells, in 100 μl media, were seeded per well in 24 well plates and left to incubate for 24 hours, with an additional 150 μl media added after 5 hours. The media was replaced with solutions containing 10 μM of 11B HCl, 11B CC11 HCl, 11B CC16 HCl, 11B 471, 11B 268 or fresh media as a control. Each drug had 6 replicates. After 24 hours of treatment, media was replaced with modified DMEM supplemented with 0.5 mM glucose. Rates of oxidative phosphorylation were determined using Seahorse Biosciences metabolism technology. The media was disposed and the cells washed with PBS. The cells were fixed with 1% glutaraldehyde for 15 minutes and then stained with crystal violet for 30 minutes. The plates were blotted and dried overnight. The cells were resuspended with 1% TritonX-100 and shaken for 15 minutes. The absorbance was read on a spectrophotometer at 595 nm. Rates of oxidative phosphorylation were then normalised to cell number.
OE33P radiosensitive and OE33R radioresistant oesophageal adenocarcinoma cells were used to test the effects of the compound 11B_Z_HCl on oxidative phosphorylation. Cells were maintained in RPMI media supplemented with 10%0/foetal calf serum, penicillin […]) and streptomycin (100 μg/ml). A total of 11,000 cells, in 100 μl media, were seeded per well in 24 well plates and left to incubate for 24 hours, with an additional 150 μl media added after 5 hours. The media was replaced with solutions containing 10 μM of 11B_Z_HCl or fresh media as a control. Each treatment had 6 replicates. After 24 hours of treatment, media was replaced with modified DMEM supplemented with 0.5 mM glucose. Rates of oxidative phosphorylation were determined using Seahorse Biosciences metabolism technology. […]

[2] = test system: OE33P radio-sensitive oesophageal adenocarcinoma cells; experiment: Cell number after 24 hours drug treatment (crystal violet absorbance), OE33P; conditions: 10 μM
Description: OE33P radio-sensitive and OE33R radio-resistant oesophageal adenocarcinoma cells were used to test the effects of the compounds 11B HCl, […], 11B CC16 HCl, 11B 471 and 11B 268 on cell number. Cells were maintained in RPMI media supplemented with 10% foetal calf serum, penicillin (100 U/ml) and streptomycin (100 gig/ml). A total of 11.000 or 13,000 cells, in 100 μl media, were seeded per well in 24 well plates and left to incubate for 24 hours, with an additional 150 μl media added after 5 hours. The media was replaced with solutions containing 10 μM of 11B HCl, 11B CC11 HCl, 11B CC16 HCl, 11B 471, 11B 268 or fresh media as a control. Each drug had 6 replicates. After 24 hours of treatment, the cells were fixed with 1% glutaraldehyde for 15 minutes and then stained with crystal violet for 30 minutes. The plates were blotted and dried overnight. The cells were resuspended with 1% TritonX-100 and shaken for 15 minutes. The absorbance was read on a spectrophotometer at 590 nm.
OE33P radiosensitive and OE33R radioresistant cells were used to test the effects of the compound 11B_Z_HCl on toxicity. Cells were maintained in RPMI media supplemented with 10% foetal calf serum, penicillin (100 U/ml) and streptomycin (100 μg/ml). A total of 11,000 cells, in 100 μl media, were seeded per well in 24 well plates and left to incubate for 24 hours, with an additional 150 μl media added after 5 hours. The media was replaced with solutions containing 10 μM of 11B_Z_HCl or fresh media as a control. Each treatment had 6 replicates. After 24 hours of treatment, the cells were fixed with 1% glutaraldehyde for 15 minutes and then stained with crystal violet for 30 minutes. The plates were blotted and dried overnight. The cells were resuspended with 1% TritonX-100 and shaken for 15 minutes. The absorbance was read on a spectrophotometer at 590 nm.

[3] = test system: RAD51L3, MMS19, SMUG1, PARP1 and MLH1 in OE33R cells; experiment: Gene expression of DNA repair proteins (qPCR), OE33R; conditions: 10 μM, 24 hours, reduction of RAD51L3, MMS19, PARP1 and MLH1
Description: (§2) O[…] radiosensitive and O[…] radioresistant oesophageal adenocarcinoma cells were used to test the effects of the above compounds on the gene expression of DNA repair proteins. Cells were maintained in RPMI media supplemented with 10% foetal calf serum, penicillin (100 U/ml) and streptomycin (100 μg/ml). Cells were seeded in 6 well plates and left to incubate for 24 hours. Cells were treated 10 μM of the above compounds or fresh media as a control. After 24 hours of treatment, RNA and cDNA was isolated and qPCR performed using primer probes to the following primer probes to RAD51L3, MMS19, SMUG1, PARP1 and MLH1. O[…] radiosensitive and O[…] radioresistant oesophageal adenocarcinoma cells were used to test the effects of compounds 11B HCl, 11B_CC11_HCl and 11B_Z_HCL on the gene expression of DNA repair proteins. Cells were maintained in RPMI media supplemented with 10% foetal calf serum, penicillin (100 U/ml) and streptomycin (100 μg/ml). Cells were seeded in 6 well plates and left to incubate for 24 hours. Cells were treated 10 μM of the above compounds or fresh media as a control. After 24 hours of treatment, RNA and cDNA was isolated and qPCR performed using primer probes to the following primer probes to RAD51L3, MMS19, SMUG1, PARP1 and MLH1.

[4] = test system: RAD51L3, MMS19, SMUG1, PARP1 and MLH1 in OE33P cells; experiment: Gene expression of DNA repair proteins (qPCR), OE33P; conditions: 10 μM, 24 hours, reductions of RAD51L3, MMS19, SMUG1 and PARP1
Description: as §2

[5] = test system: OE33P radiosensitive oesophageal adenocarcinoma cells; experiment: Quantification of oxidative phosphorylation (OCR, Seahorse), OE33P; conditions: 10 μM, 24 hours
Description: as §1
OE33P radiosensitive and OE33R radioresistant oesophageal adenocarcinoma cells were used to test the effects of the compound 11B_Z_HCl on oxidative phosphorylation. Cells were maintained in RPMI media supplemented with 10%0/foetal calf serum, penicillin […]) and streptomycin (100 μg/ml). A total of 11,000 cells, in 100 μl media, were seeded per well in 24 well plates and left to incubate for 24 hours, with an additional 150 μl media added after 5 hours. The media was replaced with solutions containing 10 μM of 11B_Z_HCl or fresh media as a control. Each treatment had 6 replicates. After 24 hours of treatment, media was replaced with modified DMEM supplemented with 0.5 mM glucose. Rates of oxidative phosphorylation were determined using Seahorse Biosciences metabolism technology. Rates of oxidative phosphorylation were then normalised to cell number.

| Structure (SMILES) | oxygen consumption rate (OCR), a measure of oxidative phosphorylation [1] | cell number, measured by % absorbance [2] | expression of DNA repair genes [3] | expression of DNA repair genes [4] | oxygen consumption rate (OCR), a measure of oxidative phosphorylation [5] | oxygen consumption rate (OCR), a measure of oxidative phosphorylation ([1]; HCl salt) | cell number, measured by % absorbance ([2]; HCl salt) | oxygen consumption rate (OCR), a measure of oxidative phosphorylation ([5]; HCl salt) |
| --- | --- | --- | --- | --- | --- | --- | --- | --- |
| Oc1ccccc1/C=C/c1ccc2ccccc2n1 [11B HCl] | significantly reduce | did not significantly reduce cell number | Reduction | Reduction | significantly reduce |  |  |  |
| C/C(=C\c1ccccc1O)c1ccc2ccccc2n1.Cl [Compound 11B_CC11_HCl, (E)-2-(2-Quinolin-2-yl-propenyl)-phenol HCl salt] | significantly reduce | did not significantly reduce cell number | Reduction | Reduction | significantly reduce |  |  |  |
| Cl.Oc1ccccc1/C=C\c1ccc2ccccc2n1 [Compound 11B_Z_HCl, (Z)-2-(2-(Quinolin-2-yl)vinyl) phenol HCl salt] |  |  | Reduction | Reduction |  | Significantly Reduces | did not significantly reduce cell number | Significantly Reduces |

Reference: patent US9815788B2, “Anti-angiogenic compounds” (University College Dublin National University of Ireland, …, priority 2012, dated 2017)
